Source: patent US20080275058A1, “N-Substituted-1H-Quinoline-2,4-Diones, Preparation Method Thereof, And Pharmaceutical Composition Containing The Same” (KOREA RESEARCH INSTITUTE OF CHEMICAL TECHNOLOGY, priority 2005, published 2008)
Where two headings read alike, the source gives them in different places.

Assays:
[1] = Rotarod deficit in mice; type: in vivo, mouse; conditions: mouse, in vivo, po, unit printed as image, read-out: TD50 (median neurotoxic dose)
Description: (§1) The mouse was placed on a 1 inch diameter knurled plastic rod rotating at 6 rpm (Ugo-Basile, Milano, Italy), and the rotarod deficit (%) was obtained by counting the number of animals fallen from the rotating rod within 1 min [Dunham et al., 1957] at 60, 90 and 120 min after the injection of the compound according to the invention(200, 300 or 400 ? ). […] The compounds of the examples were suspended in 3% Tween 80 solution, and were administered (p.o.) 60 min before the testing.

[2] = test system: mice; experiment: Rotarod deficit in mice; type: in vivo, mouse
Description: as §1

[3] = biological target: T1, 5-HT2c (Homo sapiens, UniProt P28335); experiment: Radioligand binding, 5-HT2c ([3H]Mesulergine); conditions: Table 4; [3H]Mesulergine 1 nM; read-out: Binding affinity, IC50 (nM) 5-HT2c
T1 construct: purchased Euroscreen/BioSignal Packard Inc
T1 sequence (P28335 33-458): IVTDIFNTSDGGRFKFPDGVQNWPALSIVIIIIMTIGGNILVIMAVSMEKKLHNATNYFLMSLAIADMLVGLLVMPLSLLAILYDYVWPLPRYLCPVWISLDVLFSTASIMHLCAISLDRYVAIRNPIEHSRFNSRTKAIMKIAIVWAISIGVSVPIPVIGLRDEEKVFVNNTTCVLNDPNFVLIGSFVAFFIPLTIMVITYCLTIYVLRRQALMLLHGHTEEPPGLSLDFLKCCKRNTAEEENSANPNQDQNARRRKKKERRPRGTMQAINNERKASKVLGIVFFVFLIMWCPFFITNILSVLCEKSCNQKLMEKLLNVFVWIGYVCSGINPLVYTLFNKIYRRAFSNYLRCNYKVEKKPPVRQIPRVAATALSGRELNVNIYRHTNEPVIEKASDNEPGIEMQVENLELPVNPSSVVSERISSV

[4] = biological target: T2, hD4.2 receptor (Homo sapiens, UniProt P21917, DEL265-296); experiment: Radioligand binding, dopamine D4 ([3H]YM-09151-2); conditions: Table 4; [3H]YM-09151-2 0.06 nM; read-out: Binding affinity, IC50 (nM) D4
T2 construct: purchased BioSignal Packard Inc., Montreal, Canada
T2 sequence (P21917 with tags, fused parts or gaps DEL265-296): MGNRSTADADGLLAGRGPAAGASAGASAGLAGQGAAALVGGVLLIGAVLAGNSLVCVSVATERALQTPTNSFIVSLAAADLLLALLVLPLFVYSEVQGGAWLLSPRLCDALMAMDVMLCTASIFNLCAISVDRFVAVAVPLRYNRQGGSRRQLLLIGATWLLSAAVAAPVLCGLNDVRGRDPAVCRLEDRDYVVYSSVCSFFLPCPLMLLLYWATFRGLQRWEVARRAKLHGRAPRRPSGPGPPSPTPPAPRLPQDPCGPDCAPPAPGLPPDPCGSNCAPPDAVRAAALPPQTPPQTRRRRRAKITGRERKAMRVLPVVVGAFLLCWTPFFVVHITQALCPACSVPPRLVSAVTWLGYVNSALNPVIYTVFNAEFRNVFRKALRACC
Procedure, shortened: (§2)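 Membrane competition binding with [3H]spiperone (1 nM) for hD2L and hD3, or [3H]YM-09151-2 (0.06 nM) for hD4.2, each in receptor-specific Tris-HCl pH 7.4 buffer containing Mg2+/EDTA (D3 and D4 also with K+, Ca2+; D3 with 120 mM NaCl). Compounds were tested at 7-8 concentrations in duplicate, and IC50 was derived by nonlinear regression across three assays.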

[5] = biological target: T3, Human serotonin 5-HT6 receptor (Homo sapiens, UniProt P50406); experiment: [3H]LSD binding assay on cloned 5-HT6 receptor membranes
T3 construct: made in house; host or cells: insect Sf21 cells (baculovirus vector BacPAK8)
T3 sequence (P50406 whole entry): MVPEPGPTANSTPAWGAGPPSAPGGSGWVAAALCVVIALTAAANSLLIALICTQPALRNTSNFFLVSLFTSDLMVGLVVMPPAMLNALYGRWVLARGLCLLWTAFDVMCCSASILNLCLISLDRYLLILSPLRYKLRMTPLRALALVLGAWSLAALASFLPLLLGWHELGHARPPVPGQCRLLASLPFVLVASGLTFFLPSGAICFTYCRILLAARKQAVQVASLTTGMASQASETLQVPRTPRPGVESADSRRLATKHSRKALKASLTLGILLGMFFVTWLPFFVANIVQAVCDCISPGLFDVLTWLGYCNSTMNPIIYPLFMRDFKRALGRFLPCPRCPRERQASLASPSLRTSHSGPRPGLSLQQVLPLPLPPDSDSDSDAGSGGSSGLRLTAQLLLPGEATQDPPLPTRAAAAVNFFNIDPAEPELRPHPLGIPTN

[6] = biological target: T4, 5-HT7 (Homo sapiens, UniProt P34969); experiment: Radioligand binding, 5-HT7 ([3H]LSD); conditions: Table 4; [3H]LSD 3 nM; read-out: Binding affinity, IC50 (nM) 5-HT7
T4 construct: purchased Euroscreen/BioSignal Packard Inc
T4 sequence (P34969 whole entry): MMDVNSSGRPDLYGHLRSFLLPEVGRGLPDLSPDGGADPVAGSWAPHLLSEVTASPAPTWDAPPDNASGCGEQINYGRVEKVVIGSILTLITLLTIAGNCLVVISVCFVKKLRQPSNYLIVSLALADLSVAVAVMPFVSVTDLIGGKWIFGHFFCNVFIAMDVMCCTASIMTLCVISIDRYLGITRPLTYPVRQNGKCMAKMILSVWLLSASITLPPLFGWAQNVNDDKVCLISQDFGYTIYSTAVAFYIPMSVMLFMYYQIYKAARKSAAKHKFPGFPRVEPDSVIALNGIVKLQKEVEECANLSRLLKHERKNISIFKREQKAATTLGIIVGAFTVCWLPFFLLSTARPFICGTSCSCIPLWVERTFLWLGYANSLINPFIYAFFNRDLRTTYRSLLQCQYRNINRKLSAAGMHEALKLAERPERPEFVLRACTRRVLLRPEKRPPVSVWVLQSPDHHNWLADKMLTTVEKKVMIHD

[7] = biological target: T5, 5-HT2a (Homo sapiens, UniProt P28223); experiment: Radioligand binding, 5-HT2a ([3H]Ketanserin); conditions: Table 4; [3H]Ketanserin 1 nM; read-out: Binding affinity, IC50 (nM) 5-HT2a
T5 construct: purchased Euroscreen/BioSignal Packard Inc
T5 sequence (P28223 whole entry): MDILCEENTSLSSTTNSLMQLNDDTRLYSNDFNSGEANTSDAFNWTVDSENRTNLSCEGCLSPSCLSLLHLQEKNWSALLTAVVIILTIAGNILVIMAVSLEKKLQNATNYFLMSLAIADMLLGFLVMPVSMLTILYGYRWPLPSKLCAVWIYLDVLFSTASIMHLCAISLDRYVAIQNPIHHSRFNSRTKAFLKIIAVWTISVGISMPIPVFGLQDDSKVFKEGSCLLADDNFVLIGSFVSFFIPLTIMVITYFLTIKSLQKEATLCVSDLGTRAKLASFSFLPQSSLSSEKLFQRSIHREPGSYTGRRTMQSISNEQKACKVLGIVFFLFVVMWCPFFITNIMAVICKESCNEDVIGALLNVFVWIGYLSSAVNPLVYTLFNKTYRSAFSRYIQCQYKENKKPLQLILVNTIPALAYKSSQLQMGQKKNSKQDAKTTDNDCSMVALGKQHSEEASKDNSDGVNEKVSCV

[8] = biological target: T6, hD3 (Homo sapiens, UniProt P35462); experiment: Radioligand binding, dopamine D3 ([3H]spiperone); conditions: Table 4; [3H]spiperone 1 nM; read-out: Binding affinity, IC50 (nM) D3
T6 construct: purchased BioSignal Packard Inc., Montreal, Canada
T6 sequence (P35462 whole entry): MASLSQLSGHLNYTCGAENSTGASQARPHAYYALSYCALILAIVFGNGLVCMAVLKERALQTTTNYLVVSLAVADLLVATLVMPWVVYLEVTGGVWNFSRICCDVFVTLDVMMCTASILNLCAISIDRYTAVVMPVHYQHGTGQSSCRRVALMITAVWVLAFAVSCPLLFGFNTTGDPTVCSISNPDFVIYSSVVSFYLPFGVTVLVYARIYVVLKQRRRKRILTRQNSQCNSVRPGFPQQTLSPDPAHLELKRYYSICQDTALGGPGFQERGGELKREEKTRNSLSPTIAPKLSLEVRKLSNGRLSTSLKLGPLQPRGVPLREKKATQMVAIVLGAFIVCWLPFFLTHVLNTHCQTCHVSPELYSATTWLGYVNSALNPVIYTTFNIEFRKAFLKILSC
Procedure, shortened: as §2

[9] = biological target: T7, hD2L (Homo sapiens, UniProt P14416); experiment: Radioligand binding, dopamine D2 ([3H]spiperone); conditions: Table 4; [3H]spiperone 1 nM; read-out: Binding affinity, IC50 (nM) D2
T7 construct: purchased BioSignal Packard Inc., Montreal, Canada
T7 sequence (P14416 whole entry): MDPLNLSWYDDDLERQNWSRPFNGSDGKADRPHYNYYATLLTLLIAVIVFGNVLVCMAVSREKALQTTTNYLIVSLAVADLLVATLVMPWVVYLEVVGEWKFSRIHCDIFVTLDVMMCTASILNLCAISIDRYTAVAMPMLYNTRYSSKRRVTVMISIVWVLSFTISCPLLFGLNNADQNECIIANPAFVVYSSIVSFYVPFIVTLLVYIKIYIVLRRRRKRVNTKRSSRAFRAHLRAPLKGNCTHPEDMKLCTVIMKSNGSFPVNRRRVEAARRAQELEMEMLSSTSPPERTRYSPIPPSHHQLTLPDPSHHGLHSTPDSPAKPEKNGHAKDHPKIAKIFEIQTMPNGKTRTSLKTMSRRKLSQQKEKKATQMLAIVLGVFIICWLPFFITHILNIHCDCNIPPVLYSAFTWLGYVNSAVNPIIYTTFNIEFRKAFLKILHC
Procedure, shortened: as §2

[10] = biological target: T8, 5-HT1a (Homo sapiens, UniProt P08908); experiment: Radioligand binding, 5-HT1a ([3H]8-OH-DPAT); conditions: Table 4; [3H]8-OH-DPAT 0.5 nM; read-out: Binding affinity, IC50 (nM) 5-HT1a
T8 construct: purchased Euroscreen/BioSignal Packard Inc
T8 sequence (P08908 1-422): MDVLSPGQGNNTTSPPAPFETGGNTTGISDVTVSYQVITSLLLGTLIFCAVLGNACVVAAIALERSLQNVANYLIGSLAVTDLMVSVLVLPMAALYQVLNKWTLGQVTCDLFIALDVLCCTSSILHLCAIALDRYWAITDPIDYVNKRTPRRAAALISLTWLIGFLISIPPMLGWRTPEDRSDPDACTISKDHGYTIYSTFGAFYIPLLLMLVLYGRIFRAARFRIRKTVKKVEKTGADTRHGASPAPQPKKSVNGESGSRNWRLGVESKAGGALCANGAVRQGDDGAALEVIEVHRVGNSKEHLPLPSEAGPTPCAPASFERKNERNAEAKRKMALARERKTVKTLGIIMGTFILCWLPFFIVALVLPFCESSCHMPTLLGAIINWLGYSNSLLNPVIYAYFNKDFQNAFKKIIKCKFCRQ
Procedure, shortened: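 Displacement of the radiolabel is read on purchased receptor membranes. Conditions follow the vendor's standard method.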

[11] = biological target: D1 (Homo sapiens, UniProt P21728); experiment: Radioligand binding, dopamine D1; conditions: Table 4; read-out: Binding affinity, IC50 (nM) D1
D1, sequence (P21728 whole entry): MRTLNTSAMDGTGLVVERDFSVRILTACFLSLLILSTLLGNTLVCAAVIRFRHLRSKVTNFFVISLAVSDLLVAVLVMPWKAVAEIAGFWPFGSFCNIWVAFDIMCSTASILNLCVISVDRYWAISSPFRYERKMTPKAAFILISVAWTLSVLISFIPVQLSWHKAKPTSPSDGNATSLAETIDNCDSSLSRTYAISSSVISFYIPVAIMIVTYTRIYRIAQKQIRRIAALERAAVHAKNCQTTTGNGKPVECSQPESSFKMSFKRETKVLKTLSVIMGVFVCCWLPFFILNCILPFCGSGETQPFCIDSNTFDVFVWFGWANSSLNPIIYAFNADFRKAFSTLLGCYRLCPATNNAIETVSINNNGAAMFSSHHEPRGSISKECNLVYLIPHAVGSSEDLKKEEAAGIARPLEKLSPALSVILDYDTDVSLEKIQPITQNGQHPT

[12] = Table 2, 1.87 nM [3H]LSD, 37 C, 60 min, read-out: IC50 (nM), binding affinity to the 5-HT6 receptor
[13] = Table 4, read-out: Binding affinity, IC50 (nM) 5-HT6

Row | Compound | TD50 at 120 min [1] | Rotarod deficit (%) ([2]; 200 p.o. (dose unit not given)) | Rotarod deficit (%) ([2]; 300 p.o. (dose unit not given)) | Rotarod deficit (%) ([2]; 400 p.o. (dose unit not given)) | IC50 [3] | IC50 [4] | IC50 [5, 12] | IC50 [5, 13] | IC50 [6] | melting point | IC50 [7] | IC50 [8] | IC50 [9] | IC50 [10] | IC50 [11] | binding affinity at 5-HT6 receptor labeled by [3H]LSD, in words ([5]; comment on Table 2)
1 | CCNc1ccc([C@]2(C)C(=O)c3c(N4CCN(C)CC4)cc(Cl)cc3N(Cc3ccccc3)C2=O)cc1 (stereo in doubt) [Example 6, 1-Benzyl-7-chloro-3-(4-ethylamino-phenyl)-3-methyl-5-(4-methyl-piperazin-1-yl)-1H-quinoline-2,4-dione] | > 400 mg/kg | 0% | 0% | 0% | > 1000 nM | > 10000 nM | 3.4 nM | 3.4 nM | > 1000 nM | 153 to 155 °C | > 1000 nM | 981 nM | > 1000 nM | > 10000 nM | > 1000 nM | 
2 | CC1(c2ccc(O)cc2)C(=O)c2c(N3CCNCC3)cc(Cl)cc2N(Cc2cccc([N+](=O)[O-])c2)C1=O (stereo not shown) [Example 24, 7-Chloro-3-(4-hydroxy-phenyl)-3-methyl-1-(3-nitro-benzyl)-5-piperazin-1-yl-1H-quinoline-2,4-dione] | > 400 mg/kg | 0% | 0% | 0% | 6090 nM | > 10000 nM | 14.5 nM | 14.5 nM | > 10000 nM | 252 to 253 °C | 5040 nM | 2330 nM | 3000 nM | > 10000 nM | 4930 nM | 
3 | COc1ccc(C2(C)C(=O)c3c(N4CCNCC4)cc(Cl)cc3N(Cc3ccc4ccccc4c3)C2=O)cc1 (stereo not shown) [Example 39, 7-Chloro-3-(4-methoxy-phenyl)-3-methyl-1-naphthalen-2-ylmethyl-5-piperazin-1-yl-1H-quinoline-2,4-dione] | > 400 mg/kg | 0% | 0% | 0% | > 1000 nM | > 10000 nM | 4.7 nM | 4.7 nM | > 1000 nM | 169 to 170 °C | > 1000 nM | > 1000 nM | > 1000 nM | > 10000 nM | > 1000 nM | 
4 | COc1ccc(C2(C)C(=O)c3c(N4CCNCC4)cc(Cl)cc3N(Cc3cccc(Br)c3)C2=O)cc1 (stereo not shown) [Example 33, 1-(3-Bromo-benzyl)-7-chloro-3-(4-methoxy-phenyl)-3-methyl-5-piperazin-1-yl-1H-quinoline-2,4-dione] | > 400 mg/kg | 0% | 0% | 0% | > 1000 nM | > 10000 nM | 1.8 nM | 1.8 nM | > 10000 nM | 113 to 114 °C | > 1000 nM | > 1000 nM | > 1000 nM | > 1000 nM | > 1000 nM | significant affinities
5 | COc1ccc(C2(C)C(=O)c3c(N4CCNCC4)cc(Cl)cc3N(Cc3cccc(OC)c3)C2=O)cc1 (stereo not shown) [Example 27, 7-Chloro-1-(3-methoxy-benzyl)-3-(4-methoxy-phenyl)-3-methyl-5-piperazin-1-yl-1H-quinoline-2,4-dione] | > 400 mg/kg | 0% | 0% | 0% | > 1000 nM | > 10000 nM | 2.3 nM | 2.3 nM | > 1000 nM | 110 to 112 °C | > 1000 nM | 2640 nM | > 1000 nM | > 10000 nM | > 1000 nM | 
6 | CC1(c2ccc(I)cc2)C(=O)c2c(N3CCNCC3)cc(Cl)cc2N(Cc2ccccc2)C1=O (stereo not shown) [Example 21, 1-Benzyl-7-chloro-3-(4-iodo-phenyl)-3-methyl-5-piperazin-1-yl-1H-quinoline-2,4-dione] | > 400 mg/kg | 0% | 0% | 0% | 1810 nM | 5870 nM | 6.9 nM | 6.9 nM | 3340 nM | 176 to 177 °C | 553 nM | 1050 nM | 1640 nM | 468 nM | 1620 nM | 
